Test results reported in US8440619B2, “Utilization of hypertension/hypercardia-preventing effect of D-allose” (National University Corporation Kagawa University, priority 2005, dated 2013).

Columns and labels:
[1] = tested on: spontaneously hypertensive rats (SHR); assay: Systolic blood pressure by the tail-cuff method in spontaneously hypertensive rats; type: in vivo, rat; details: 2 g daily/kg orally, 4 weeks
Text: (§1) Male spontaneously hypertensive rats of age 8 weeks (SHR) and male Wister KYOTO rats (WKY) of the same age were used. SHR was fed with a 0.5% salt diet or a 8% salt diet (Oriental Yeast Co., Ltd.) for 4 weeks (individually referred to as the 0.5% salt diet group and the 8% salt diet group). Additionally, D-allose or D-glucose was orally given to the 0.5% salt diet group and the 8% salt diet group, at 2 g daily/kg body weight (D-allose group or D-glucose group) during the period. WKY was fed with the 0.5% salt diet and used as a normal control group. Systolic blood pressure was measured by the tail-cuff method over time.

[2] = Urine generation, Na and protein excretion in urine in DS rats; type: in vivo, rat
Text: (§2) Salt-sensitive male Dahl rats of age 7 weeks and with the onset of hypertension (DS) and salt-insensitive male Dahl rats of the same age (DR) were used. The DS rats were fed with a 0.5% salt diet or a 4% salt diet (Oriental Yeast Co., Ltd.) for 4 weeks (individually referred to as 0.5% salt diet group and 4% salt diet group). During the period, D-allose or D-glucose was orally given to the 4% salt diet group at 2 g daily/kg body weight (D-allose group or D-glucose group). The DR rats were fed with the 0.5% salt diet group and used as a normal control group. Blood pressure was measured by the tail-cuff method over time, while before salt loading and on the completion of salt loading, urine was collected for one day. On the last day of the observation period, the thoracic aorta was resected. A part thereof was used to quantify the amount of generated active oxygen in the aorta by the lucigenin method, while another part thereof was used to compare the amount of generated active oxygen between the groups by the dihydroxyethidium (DHE) fluorescence method. So as to assay the expression level of the messenger RNA of the NADPH oxidase involved in the increase of tissue oxidative stress (J Hypertens. 2004; 22:2161-2168), further, the renal cortex and the thoracic aorta were partially stored at −80° C.

Nox-1 messenger RNA = assay: Messenger RNA of NADPH oxidase-composing factor Nox1; type: in vivo, rat; details: DS rats, 4% salt diet, 4 weeks, DR rats = 1.00
Text: as §2, with “C. The levels of the messenger RNAs of p22phox and Nox analogs (Nox-1, gp91phox, Nox-4) as the NADPH oxidase-composing factors were assayed and compared in between thoracic aorta and renal cortex.” for “C.”

[3] = Body weight, heart weight and kidney weight in SHR; type: in vivo, rat; details: 2 g daily/kg orally, 4 weeks
Text: as §1

[4] = tested on: salt-sensitive Dahl rats with the onset of hypertension (DS); assay: Blood pressure by the tail-cuff method in salt-loaded salt-sensitive Dahl rats; type: in vivo, rat; details: 4% salt diet, 2 g daily/kg body weight orally, in 4 weeks
Text: as §2

[5] = Body weight, organ weight and feed intake in DS rats; type: in vivo, rat; details: 4% salt diet, 2 g daily/kg orally, after 4-week feeding
Text: as §2

Nox-4 messenger RNA = assay: Messenger RNA of NADPH oxidase-composing factor Nox4; type: in vivo, rat; details: DS rats, 4% salt diet, 4 weeks, DR rats = 1.00
Text: as §2, with “C. The levels of the messenger RNAs of p22phox and Nox analogs (Nox-1, gp91phox, Nox-4) as the NADPH oxidase-composing factors were assayed and compared in between thoracic aorta and renal cortex.” for “C.”

p22phox messenger RNA = assay: Messenger RNA of NADPH oxidase-composing factor p22phox; type: in vivo, rat; details: DS rats, 4% salt diet, 4 weeks, DR rats = 1.00
Text: as §2, with “C. The levels of the messenger RNAs of p22phox and Nox analogs (Nox-1, gp91phox, Nox-4) as the NADPH oxidase-composing factors were assayed and compared in between thoracic aorta and renal cortex.” for “C.”

[6] = tested on: active oxygen in rat thoracic aorta; assay: Generated active oxygen in thoracic aorta, lucigenin method; type: in vivo; details: DS rats, 4% salt diet, 2 g daily/kg orally, 4 weeks
Text: as §2, with “C. […] Then, the luminescence was counted with a luminescence reader (BLR-301; Aloka).” for “C.”

[7] = tested on: active oxygen in rat thoracic aorta; assay: Generated active oxygen in thoracic aorta, DHE fluorescence method; type: in vivo; details: DS rats, 4% salt diet, 2 g daily/kg orally, 4 weeks
Text: as §2, with “[…] A 10-μm ring slice piece was prepared from the embedded aorta with a cryostat,” for “So as”, “observe” for “assay”, “intra-tissue localization of ethidium generated from the specific reaction between active oxygen and DHE, along with the intensity” for “expression level”, “luminescence, with a co-focus microscope (Bio-Rad).” for “messenger RNA of the NADPH oxidase involved in the increase of tissue oxidative stress (J Hypertens. 2004; 22:2161-2168), further, the renal cortex and the thoracic aorta were partially stored at −80° C.”

gp91phox messenger RNA = assay: Messenger RNA of NADPH oxidase-composing factor gp91phox; type: in vivo, rat; details: DS rats, 4% salt diet, 4 weeks, DR rats = 1.00
Text: as §2, with “C. The levels of the messenger RNAs of p22phox and Nox analogs (Nox-1, gp91phox, Nox-4) as the NADPH oxidase-composing factors were assayed and compared in between thoracic aorta and renal cortex.” for “C.”

[8] = 4% salt diet, 2 g daily/kg orally, after 4-week feeding

| Structure (SMILES) | systolic blood pressure ([1]; 0.5% salt diet) | systolic blood pressure ([1]; 8% salt diet) | Protein excretion in urine [2, 8] | Protein excretion in urine ([2]; before salt loading (baseline)) | Nox1 messenger RNA level (Nox-1 messenger RNA; Aorta) | Nox1 messenger RNA level (Nox-1 messenger RNA; Renal cortex) | Heart weight ([3]; 0.5% salt diet) | Heart/body weight ratio ([3]; 0.5% salt diet) | Kidney weight ([3]; 0.5% salt diet) | Kidney/body weight ratio ([3]; 0.5% salt diet) | Heart weight ([3]; 8% salt diet) | Heart/body weight ratio ([3]; 8% salt diet) | Kidney weight ([3]; 8% salt diet) | Kidney/body weight ratio ([3]; 8% salt diet) | diastolic pressure [4] | systolic pressure [4] | Heart weight [5] | Heart/body weight ratio [5] | Kidney weight [5] | Kidney/body weight ratio [5] | other results |
| --- | --- | --- | --- | --- | --- | --- | --- | --- | --- | --- | --- | --- | --- | --- | --- | --- | --- | --- | --- | --- | --- |
| O=C[C@H](O)[C@H](O)[C@H](O)[C@H](O)CO [D-allose] | 180±5 mmHg | 222±8 mmHg | 31.3 ± 11.8 mg/day | 9.5 ± 1.2 mg/day | 0.74 ± 0.22 | 0.88 ± 0.11 | 1042 ± 23 mg | 3.56 ± 0.05 ×10^−3 | 1212 ± 34 mg | 4.15 ± 0.08 ×10^−3 | 1337 ± 50 mg | 4.40 ± 0.06 ×10^−3 | 1387 ± 61 mg | 4.57 ± 0.17 ×10^−3 | 102±4 mmHg | 135±7 mmHg | 994 ± 28 mg | 2.88 ± 0.07 ×10^−3 | 1389 ± 25 mg | 4.03 ± 0.03 ×10^−3 | Nox4 messenger RNA level (Nox-4 messenger RNA; Aorta): 1.36 ± 0.10; Nox4 messenger RNA level (Nox-4 messenger RNA; Renal cortex): 1.32 ± 0.22; p22phox messenger RNA level (p22phox messenger RNA; Aorta): 0.83 ± 0.21; p22phox messenger RNA level (p22phox messenger RNA; Renal cortex): 1.18 ± 0.20; active oxygen generation in thoracic aorta (lucigenin method) [6]: suppressed to the level as observed in the 0.5% salt diet group or the DR normal control group; signal accumulation in the aorta media nucleus on DHE fluorescence images [7]: suppressed; gp91phox messenger RNA level (gp91phox messenger RNA; Aorta): 1.34 ± 0.27; gp91phox messenger RNA level (gp91phox messenger RNA; Renal cortex): 0.97 ± 0.15 |
| O=C[C@H](O)[C@@H](O)[C@H](O)[C@H](O)CO [D-glucose] | 201±7 mmHg | 255±5 mmHg | 85.3 ± 20.5 mg/day | 13.1 ± 3.2 mg/day | 0.85 ± 0.24 | 1.03 ± 0.24 | 1180 ± 35 mg | 3.92 ± 0.15 ×10^−3 | 1206 ± 32 mg | 3.02 ± 0.02 ×10^−3 | 1437 ± 38 mg | 4.70 ± 0.13 ×10^−3 | 1342 ± 41 mg | 4.40 ± 0.19 ×10^−3 | 125±6 mmHg | 162±5 mmHg | 1066 ± 35 mg | 3.00 ± 0.08 ×10^−3 | 1370 ± 36 mg | 3.85 ± 0.07 ×10^−3 | Nox4 messenger RNA level (Nox-4 messenger RNA; Aorta): 1.75 ± 0.24; Nox4 messenger RNA level (Nox-4 messenger RNA; Renal cortex): 1.38 ± 0.16; p22phox messenger RNA level (p22phox messenger RNA; Aorta): 1.14 ± 0.32; p22phox messenger RNA level (p22phox messenger RNA; Renal cortex): 1.19 ± 0.06; active oxygen generation in thoracic aorta (lucigenin method) [6]: no such suppressive effect was observed; signal accumulation in the aorta media nucleus on DHE fluorescence images [7]: never changed; gp91phox messenger RNA level (gp91phox messenger RNA; Aorta): 1.90 ± 0.19; gp91phox messenger RNA level (gp91phox messenger RNA; Renal cortex): 1.20 ± 0.28 |
